Test results reported in paper PMC8434109, “Synthesis and Biological Activity of a Cytostatic Inhibitor of MLLr Leukemia Targeting the DOT1L Protein” (Molecules, 2021).

Tests used:
[1] = target: recombinant hDOT1L (Homo sapiens, UniProt Q8TEK3); assay: AlphaLISA DOT1L enzymatic inhibition assay on purified nucleosomes
[2] = Microsomal stability; format: in vitro ADME; conditions: mouse, liver microsomes
[3] = system: MV4-11 cells; assay: Flow cytometry apoptosis analysis (Annexin V-APC/7-AAD); format: cell-based, human; conditions: MV4-11
Experimental: (§1) A decrease in the S phase of the cell cycle was also observed from 24% (day 8) to 20% (day 10), 13% (day 12).
(§2) In a 12-well plate, 2 mL exponentially growing MV4-11 cells were plated with a density of 2 × 10^5 cells/mL. […] Culture media and drugs were replaced every 2–3 days and cells were split back to a density of 2 × 10^5 cells/mL at the same time. Cells were harvested on days 8, 10, 12 and split to allow the analysis of cell cycle and Annexin V staining simultaneously. The apoptosis ratio was detected by an Annexin V-APC/7-AAD double staining assay (SONY 3804610) and cells were prepared according to the manufacturer’s recommendations. Cells for the cell cycle analysis were collected by centrifugation at 500× g for 5 min at 4 °C. The pellets were washed once with cold PBS and then fixed with 70% ethanol on ice for 30 min. Afterwards, the cells were washed once with cold PBS and stained with propidium iodide (Invitrogen P3566) for 30 min at 37 °C. Samples were measured using an Attune NxT acoustic focusing cytometer (Life Technologies), data were analyzed by FlowJo.

[4] = system: H3K79me2 in MV4-11 cells; assay: Western blot of H3K79me2 normalized to total H3; format: cell-based, human; conditions: MV4-11, 4 days, increasing concentrations
Experimental: Next, we evaluated the effect on the demethylation of H3K79 in MLL-AF9 MOLM13 cells (Figure 7B).
The non-adherent cell lines MV4-11, MOLM-13, and KOPN8 exponentially growing cells were plated in 12-well plates (1 plate for each experiment) at a rate of 500,000 cells per well at a final volume of 2 mL. The cells were incubated in the presence of increasing inhibitor concentrations (0.1, 0.32, 1, 3.2, 10 µM). The cells (1 to 2 million) were harvested at the time chosen according to the line in order to extract the histones and the RNAs.
For the isolation of histones from cells, 1 to 2 million cells were collected, after exposure to the chosen treatment, by centrifugation at 200× g and lysed by 5 min of incubation on ice in 250 μL of the nuclear extraction buffer (10 mM Tris-HCl, 10 mM MgCl2, 25 mM KCl, 1% Triton X-100, 8.6% sucrose, Roche Protease inhibitor tablet 1836145). The nuclei were collected by centrifugation at 600× g for 5 min at 4 °C. The supernatant was removed and the histones were extracted for 1 h with 0.4 N cold sulfuric acid. The extracts were clarified by centrifugation at 10,000× g for 10 min at 4 °C and transferred to a microcentrifuge tube containing a 10× volume of ice-cold acetone. The histones were precipitated at ‒20 °C overnight and recovered by centrifugation at 1500× g for 10 min in the form of a pellet and then resuspended in 80 μL of water. Histones were quantified by absorbance measured by a nanodrop at 276 nm.
After extraction, the histones (500ng) were separated on 4–20% Tris-Glycine gels (Invitrogen) and transferred onto a nitrocellulose membrane ([…]) using the iBlot® Gel Transfer Stacks Nitrocellulose kit Mini (Invitrogen). After blocking nonspecific sites for 1 h at room temperature in a solution of 1X TBS at 5% milk, the membrane was incubated with rabbit anti-H3K79me2 (ab3594, 1/1000) or anti-H3 (ab1791)1/1000) overnight at 4 °C or 1 h at RT. The membrane was then washed three times for 5 min in a 1X TBS solution containing 0.05% Tween20 and was then incubated with an HRP anti-rabbit secondary antibody (NA934V, 1/10,000) for 1 h at RT. […]

[5] = system: MOLM-13 cells (MLL-AF9); assay: Cell proliferation, trypan blue counting; format: cell-based; conditions: Homo sapiens, 360 h; MOLM-13 (AF9), 15-day treatment; read-out: EC50 of the proliferation inhibition
[6] = system: MV4-11 cells; assay: Flow cytometry cell cycle analysis (propidium iodide); format: cell-based, human; conditions: MV4-11, 1 µM
Experimental: as §1, §2

[7] = system: MV4-11 cells (MLL-AF4); assay: Cell proliferation and viability, trypan blue counting; format: cell-based, human
[8] = system: KOPN8 cells (MLL-ENL); assay: Cell proliferation, trypan blue counting; format: cell-based; conditions: Homo sapiens, KOPN-8, 360 h, 15-day treatment, read-out: EC50 of the proliferation inhibition
Experimental: (§3) For assessment of cell proliferation and viability in human cell lines, exponentially growing cells were placed, in triplicate, in 96-well plates at a density of 35,000 cells/well at a final volume of 100 µL. […] The viable cell number was determined every 3–4 days for up to 15 days to 21 days using trypan blue counting using Cellometer Disposable Counting Chambers for the Cellometer Mini Automated Cell Counter.

[9] = system: NOMO-1 cells (MLL-AF9); assay: Cell proliferation, trypan blue counting; format: cell-based; conditions: Homo sapiens, 360 h; NOMO-1 (AF9), 15-day treatment; read-out: EC50 of the proliferation inhibition
Experimental: as §3

Sequence of recombinant hDOT1L (Q8TEK3 1-416): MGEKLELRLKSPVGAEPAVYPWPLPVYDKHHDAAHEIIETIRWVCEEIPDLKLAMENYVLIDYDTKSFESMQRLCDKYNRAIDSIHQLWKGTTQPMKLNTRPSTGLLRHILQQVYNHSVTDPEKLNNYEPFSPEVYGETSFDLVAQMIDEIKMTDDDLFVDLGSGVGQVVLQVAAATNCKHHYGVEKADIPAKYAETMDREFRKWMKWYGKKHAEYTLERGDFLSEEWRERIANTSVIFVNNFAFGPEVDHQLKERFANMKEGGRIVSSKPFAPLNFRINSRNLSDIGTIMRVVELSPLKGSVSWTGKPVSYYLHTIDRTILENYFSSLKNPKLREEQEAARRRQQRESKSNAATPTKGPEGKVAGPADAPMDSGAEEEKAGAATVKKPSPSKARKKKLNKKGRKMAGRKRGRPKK

| IC50 [1] [nM] | SMILES | half-life [2] [min] | effect on apoptosis [3] | H3K79me2 methylation compared to DMSO treated cells [4] | EC50 [5] [nM] | effect on the cell cycle [6] | EC50 ([7]; Homo sapiens, 360 h, MV4-11 (AF4), 15-day treatment, read-out: EC50 of the proliferation inhibition) [nM] | effect on cell viability / proliferation ([7]; MV4-11, after 8 days of treatment) | EC50 [8] [nM] | EC50 [9] [nM] |
| --- | --- | --- | --- | --- | --- | --- | --- | --- | --- | --- |
| 316 | CC(C)[C@@H](CCCNC(=O)Nc1ccc(C(C)(C)C)cc1)N[C@H]1C[C@@H](n2cnc3c(N)ncnc32)[C@H](O)[C@@H]1O [Dia1, 1-((R)-4-(((1S,2R,3S,4R)-4-(6-amino-9H-purin-9-yl)-2,3-dihydroxycyclopentyl)amino)-5-methylhexyl)-3-(4-(tert-butyl)phenyl)urea] |  |  |  |  |  |  |  |  |  |
|  | CC(C)N(CCCNC(=O)Nc1ccc(C(C)(C)C)cc1)C[C@H]1O[C@@H](n2ccc3c(N)ncnc32)[C@H](O)[C@@H]1O [EPZ-4777, reference compound] | 5.3 |  |  |  |  |  |  |  |  |
|  | CC(C)N(C[C@H]1O[C@@H](n2cnc3c(N)ncnc32)[C@H](O)[C@@H]1O)[C@H]1C[C@@H](CCc2nc3cc(C(C)(C)C)ccc3[nH]2)C1 [EPZ-5676, reference compound] | 5.7 | increase in apoptosis | efficient decrease in methylation | 92 ± 2 | increase in cells in subG1 | 21 ± 1 | cell viability decreased by half | 86 ± 4 | 562 ± 15 |
